Data on 24 molecules can be found in patent publication US10259782B2, “ROR gamma (RORγ) modulators” (LEAD PHARMA HOLDING B.V., priority 2015, dated 2019).

The structures appear in SMILES notation. Bounds are passed on as bounds.

The target in this test is T1, RORγ (Homo sapiens, UniProt P51449).
T1 construct: expressed in transfected cells; host or cells: 293FT cells (Invitrogen), expression vector pFN26A (Promega)
T1 sequence (P51449 269-508 limits assumed): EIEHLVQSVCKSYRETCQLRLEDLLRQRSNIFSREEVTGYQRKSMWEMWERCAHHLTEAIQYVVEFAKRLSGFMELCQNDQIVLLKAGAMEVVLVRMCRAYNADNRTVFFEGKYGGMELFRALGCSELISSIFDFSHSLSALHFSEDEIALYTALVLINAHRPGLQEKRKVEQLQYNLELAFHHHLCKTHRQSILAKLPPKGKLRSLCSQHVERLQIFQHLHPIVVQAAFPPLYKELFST
In words: RORγ GAL4 reporter gene assay (luciferase readout, 293FT cells). The test is classed as cell-based. Conditions: inhibition of RORγ (GAL4-RORγ-LBD) in transfected 293FT cells, luciferase signal, overnight incubation; read-out: mean pIC50 (converted). The method, then: RORγ GAL4 Reporter Gene Assay
Example inhibitors 1-47 were tested for their ability to inhibit RORγ activity in a RORγ GAL4 reporter gene assay. The assay procedure and results are described below.
RORγ GAL4 Reporter Gene Assay Description
A GAL4 one-hybrid reporter system employing luciferase readout was established to determine inhibition of RORγ in 293FT cells. The RORγ ligand-binding domain (LBD) was fused to the yeast GAL4 DNA binding domain (DBD) and placed under the control of the human cytomegalovirus (CMV) immediate early promoter, using expression vector pFN26A (Promega) and standard recombinant DNA cloning methods. To serve as a control in the assay, a similar vector was generated in which the GAL4-DBD was fused to Herpes simplex virus protein 16 (VP16), a constitutive transcriptional activator.
To monitor the inhibitory effect of compounds on RORγ, a transcriptional reporter construct was used. The pGL4.35 vector (Promega) contains nine copies of the GAL4 Upstream Activator Sequence (UAS). This sequence drives the transcription of the luciferase reporter gene luc2P in response to binding of a fusion protein containing the GAL4 DNA binding domain, as for example expressed by the GAL4-RORγ-LBD and GAL4-VP16 expression vectors described above. To allow a GAL4 fusion protein to drive the expression of the luciferase reporter, the pGL4.35 expression vector and the appropriate GAL4 fusion protein expression vector were bulk transfected in the 293FT cells using standard transfection techniques.
The day after transfection, cells were plated into 96 well plates, test compound was added and the plates were incubated overnight. Subsequently, the firefly luciferase activity was quantified using luciferase detection reagent and luminescence readout.
Detailed Assay Description
293FT cells (Invitrogen) were transfected with a GAL4 fusion protein expression vector (as described above) and the transcriptional reporter construct (pGL4.35, Promega). 60 μL of TransIT-293 transfection reagent (Mirus Bio) was added drop wise to 1500 μl Opti-MEM I Reduced Serum Medium (Invitrogen) and incubated at room temperature (RT) for 5 to 20 minutes. 1500 μL of this reagent mixture was added to 5 μg of GAL4 fusion protein expression vector and 5 μg of the transcriptional reporter construct, and incubated at RT for 20 minutes.
To harvest 293FT cells from a T75 flask, first the culture medium was taken off the cells. Subsequently, the cells were washed with Phosphate Buffered Saline (PBS) (Lonza), after which the PBS was removed. To dissociate the cells, 1 ml of TrypLE Express (Invitrogen) was added to the flask, followed by incubation at RT until the cells visually started to detach. Cells were collected in 5 mL of assay medium (DMEM culture medium (Lonza), 10% dialyzed FBS (Invitrogen) and Pen/Strep (Lonza)) to achieve a single cell suspension. 10×10^6 cells were spun down and re-suspended in 10 mL of assay medium. Subsequently, the cell suspension was added to the transfection mix tube, and then transferred as a whole to a T75 flask (Greiner), followed by overnight (16-24 hours) incubation at 37° C. and 5% CO2.
For compound screening, the cells were harvested (as described above) and counted. 13×10^6 cells were spun down, the supernatant was aspirated and the cells were re-suspended in 17.3 mL of assay medium obtaining a cell suspension of 0.75×10^6 cells/mL. 80 μL of cell suspension (60,000 cells) was plated per well into a white, flat bottom, tissue culture treated, 96 well screening plates (Greiner).
Test compounds were diluted, starting from a 10 mM dimethylsulf oxide (DMSO) stock solution, to serial dilutions in DMSO at 500× the final test concentration. Subsequently, these solutions were diluted to 5× the final test concentration in two 10-fold-dilution steps in assay medium. The final DMSO concentration of the 5× test compound solution was 1%. […]
On the technique in general: A reporter such as luciferase makes a cellular process visible.
Consider `O=C(Cc1ccc(S(=O)(=O)CC2CC2)cc1)Nc1ccc(-c2ccccc2)c(Oc2ccccc2)c1` [Example 1, 2-(4-cyclopropylmethanesulfonylphenyl)-N-(3-phenoxy-4-phenylphenyl)acetamide], for which the IC50 was at most 1000 nM. Take `COc1cccc(Oc2cc(NC(=O)Cc3ccc(S(=O)(=O)CC4CC4)cc3)ccc2-c2cccc(F)c2)c1` [Example 2, 2-(4-cyclopropylmethanesulfonylphenyl)-N-[4-(3-fluorophenyl)-3-(3-methoxyphenoxy)phenyl]acetamide]: the IC50 is at most 100 nM. The value for `COc1cccc(Oc2cc(NC(=O)Cc3ccc(S(=O)(=O)CC4CC4)cc3)ccc2-n2cnc(C)c2)c1` [Example 3, 2-(4-cyclopropylmethanesulfonylphenyl)-N-[3-(3-methoxyphenoxy)-4-(4-methyl-1H-imidazol-1-yl)phenyl]acetamide] was at most 100 nM; that for `O=C(Cc1ccc(S(=O)(=O)CC2CC2)cc1)Nc1ccc(-c2cccc(F)c2)c(Oc2cccc(Cl)c2)c1` [Example 4, N-[3-(3-chlorophenoxy)-4-(3-fluorophenyl)phenyl]-2-(4-cyclopropylmethanesulfonylphenyl)acetamide] was at most 100 nM; that for `O=C(Cc1ccc(S(=O)(=O)CC2CC2)cc1)Nc1ccc(-c2ccc(F)c(F)c2)c(Oc2cccc(Cl)c2)c1` [Example 5, N-[3-(3-chlorophenoxy)-4-(3,4-difluorophenyl)phenyl]-2-(4-cyclopropylmethanesulfonylphenyl)acetamide] was at most 100 nM.

Take `N#Cc1cccc(Oc2cc(NC(=O)Cc3ccc(S(=O)(=O)CC4CC4)cc3)ccc2-c2ccc(F)c(F)c2)c1` [Example 6, N-[3-(3-cyanophenoxy)-4-(3,4-difluorophenyl)phenyl]-2-(4-cyclopropylmethanesulfonylphenyl)acetamide]: the IC50 is at most 100 nM.

As to `COc1cccc(Oc2cc(NC(=O)Cc3ccc(S(=O)(=O)CC4CC4)cc3)ccc2-n2nccc2C)c1` [Example 7, 2-(4-cyclopropylmethanesulfonylphenyl)-N-[3-(3-methoxyphenoxy)-4-(5-methyl-1H-pyrazol-1-yl)phenyl]acetamide], the IC50 is at most 100 nM. For the molecule `O=C(Cc1ccc(S(=O)(=O)CC2CC2)cc1)Nc1ccc(-c2cc(F)cc(F)c2)c(Oc2cccc(Cl)c2)c1` [Example 8, N-[3-(3-chlorophenoxy)-4-(3,5-difluorophenyl)phenyl]-2-(4-cyclopropylmethanesulfonylphenyl)acetamide], the IC50 is at most 100 nM. As for `N#Cc1ccc(-c2ccc(NC(=O)Cc3ccc(S(=O)(=O)CC4CC4)cc3)cc2Oc2cccc(F)c2)cc1` [Example 9, N-[4-(4-cyanophenyl)-3-(3-fluorophenoxy)phenyl]-2-(4-cyclopropylmethanesulfonylphenyl)acetamide], the IC50 is at most 100 nM. In the case of `N#Cc1cccc(-c2ccc(NC(=O)Cc3ccc(S(=O)(=O)CC4CC4)cc3)cc2Oc2cccc(Cl)c2)c1` [Example 10, N-[3-(3-chlorophenoxy)-4-(3-cyanophenyl)phenyl]-2-(4-cyclopropylmethanesulfonylphenyl)acetamide], the IC50 was at most 100 nM. `O=C(Cc1ccc(S(=O)(=O)CC2CC2)cc1)Nc1ccc(-c2cccc(F)c2)c(Oc2cccc(C(F)(F)F)c2)c1` [Example 11, 2-(4-cyclopropylmethanesulfonylphenyl)-N-[4-(3-fluorophenyl)-3-[3-(trifluoromethyl)phenoxy]phenyl]acetamide]: the IC50 is at most 100 nM. Regarding `O=C(Cc1ccc(S(=O)(=O)CC2CC2)cc1)Nc1ccc(-c2ccc(F)cc2)c(Oc2cccc(F)c2)c1` [Example 12, 2-(4-cyclopropylmethanesulfonylphenyl)-N-[3-(3-fluorophenoxy)-4-(4-fluorophenyl)phenyl]acetamide], the IC50 was at most 100 nM. The value for `O=C(Cc1ccc(S(=O)(=O)CC2CC2)cc1)Nc1ccc(-c2cccc(F)c2)c(Oc2cc(F)cc(F)c2)c1` [Example 13, 2-(4-cyclopropylmethanesulfonylphenyl)-N-[3-(3,5-difluorophenoxy)-4-(3-fluorophenyl)phenyl]acetamide] was at most 100 nM; that for `COc1cccc(Oc2cc(NC(=O)Cc3ccc(S(=O)(=O)NC4CC4)cc3)ccc2-n2cnc(C)c2)c1` [Example 14, 2-[4-(cyclopropylsulfamoyl)phenyl]-N-[3-(3-methoxyphenoxy)-4-(4-methyl-1H-imidazol-1-yl)phenyl]acetamide] was at most 1000 nM. For `COc1cccc(Oc2cc(NC(=O)Cc3ccc(S(=O)(=O)NC4CC4)cc3)ccc2-c2cccc(F)c2)c1` [Example 16, 2-[4-(cyclopropylsulfamoyl)phenyl]-N-[4-(3-fluorophenyl)-3-(3-methoxyphenoxy)phenyl]acetamide] the value was at most 1000 nM; for `O=C(Cc1ccc(S(=O)(=O)NC2CC2)cc1)Nc1ccc(-c2cccc(F)c2)c(Oc2cccc(Cl)c2)c1` [Example 17, N-[3-(3-chlorophenoxy)-4-(3-fluorophenyl)phenyl]-2-[4-(cyclopropylsulfamoyl)phenyl]acetamide], at most 1000 nM. `O=C(Cc1ccc(S(=O)(=O)NC2CC2)cc1)Nc1ccc(-c2ccc(F)c(F)c2)c(Oc2cccc(Cl)c2)c1` [Example 18, N-[3-(3-chlorophenoxy)-4-(3,4-difluorophenyl)phenyl]-2-[4-(cyclopropylsulfamoyl)phenyl]acetamide]: the IC50 was at most 1000 nM. For `O=C(Cc1ccc(S(=O)(=O)NC2CC2)cc1)Nc1ccc(-c2cccc(F)c2)c(Oc2cccc(C(F)(F)F)c2)c1` [Example 19, 2-[4-(cyclopropylsulfamoyl)phenyl]-N-[4-(3-fluorophenyl)-3-[3-(trifluoromethyl)phenoxy]phenyl]acetamide] the value was at most 1000 nM.

On to `O=C(Cc1ccc(S(=O)(=O)CC2CC2)cc1)Nc1nc(-c2ccccc2)c(Oc2ccccc2)s1` [Example 20, 2-(4-cyclopropylmethanesulfonylphenyl)-N-(5-phenoxy-4-phenyl-1,3-thiazol-2-yl)acetamide], for which the IC50 is at most 1000 nM. Regarding `O=C(Cc1ccc(S(=O)(=O)CC2CC2)cc1)Nc1nc(-c2ccccc2)c(Oc2cccnc2)s1` [Example 21, 2-(4-cyclopropylmethanesulfonylphenyl)-N-[4-phenyl-5-(pyridin-3-yloxy)-1,3-thiazol-2-yl]acetamide], the IC50 was at most 1000 nM. The value for `O=C(Cc1ccc(S(=O)(=O)CC2CC2)cc1)Nc1nc(-c2ccccc2)c(C(=O)c2ccccc2)s1` [Example 22, N-(5-benzoyl-4-phenyl-1,3-thiazol-2-yl)-2-(4-cyclopropylmethanesulfonylphenyl)acetamide] was at most 100 nM. As for `O=C(Cc1ccc(S(=O)(=O)CC2CC2)cc1)Nc1nc(-c2cccc(Cl)c2)c(C(=O)c2ccc(Cl)cc2)s1` [Example 23, N-[5-(4-chlorobenzoyl)-4-(3-chlorophenyl)-1,3-thiazol-2-yl]-2-(4-cyclopropylmethanesulfonylphenyl)acetamide], the IC50 was at most 100 nM.

As to `O=C(Cc1ccc(S(=O)(=O)CC2CC2)cc1)Nc1cc(-c2ccccc2)cs1` [Example 24, 2-(4-cyclopropylmethanesulfonylphenyl)-N-(4-phenylthiophen-2-yl)acetamide], the IC50 was at most 1000 nM. For the molecule `O=C(Cc1ccc(S(=O)(=O)CC2CC2)cc1)Nc1cc(-c2cccnc2)cs1` [Example 25, 2-(4-cyclopropylmethanesulfonylphenyl)-N-[4-(pyridin-3-yl)thiophen-2-yl]acetamide], the IC50 was at most 1000 nM.
